This note sets out measurements from patent publication US20050118129A1, “Gentle and enhanced preservative systems” (priority 2003, published 2005).

The test system of test [1] is Aspergillus niger (ATCC 16404). In words: Comparison of strength between saccharides, preservative efficacy against fungus. In kind it is cell-based. Here is the method: (§1) The preservative efficacy of various saccharides and a cationic polysaccharide were tested against one bacteria, i.e., Staphylococcus aureus (ATCC 6538), and against one fungus, i.e., Aspergillus niger (ATCC 16404). Acceptance criteria for the bacteria established that the number of viable bacteria, recovered per ml, be reduced by not less than 3.0 logs at 14 days. After the rechallenge at day 14, the concentration of bacteria shall be reduced by at least 3.0 logs at day 28. Acceptance criteria for the fungus established that the number of viable yeasts and molds, recovered per ml, remain at or below the initial concentrations within an experimental error of ±0.5 logs within 14 days. After day 28, the concentration of mold and yeast shall remain at or below the concentrations after rechallenge within experimental error of ±0.5 logs. Results of the saccharide/cationic polysaccharide preservative efficacy test are set forth below in Table 1.

The subject of test [2] is Staphylococcus aureus (ATCC 6538). In words: Comparison of strength between saccharides, preservative efficacy against bacteria. In kind it is cell-based. Here is the method: as §1

For `O=C[C@H](O)[C@@H](O)[C@H](O)[C@H](O)CO` [D-Glucose], the “Log Reduction of Aspergillus niger (ATCC 16404) at 28 Days (Fungus)” value (shortened to “Log Reduction of Aspergillus niger”) in test [1] was 3.7 Log. Also, in test [2], the “Log Reduction of Staphylococcus aureus (ATCC 6538) at 28 Days (Bacteria)” value (“Log Reduction of Staphylococcus aureus” below) worked out at 1.9 Log.
Take `O=C[C@H](O)[C@@H](O)[C@@H](O)[C@H](O)CO` [Galactose]: the “Log Reduction of Aspergillus niger” value in test [1] was 1.4 Log. Further, the “Log Reduction of Staphylococcus aureus” value in test [2] is on record as 2.2 Log.
The corresponding values for `OC[C@@H](O)[C@@H](O)[C@H](O)[C@H](O)CO` [Mannitol] are 2.4 Log and 2.0 Log.
On to `CO[C@H]1O[C@H](CO)[C@@H](O)[C@H](O)[C@H]1O` [Methyl-α-D-gluco-pyranose], for which the “Log Reduction of Aspergillus niger” value in test [1] was found to be 1.6 Log. Further, the “Log Reduction of Staphylococcus aureus” value in test [2] came out at 1.7 Log.
Turning to `CO[C@H]1O[C@H](CO)[C@@H](O)[C@H](O)[C@H]1O` [Methyl-α-D-gluco-pyranoside], the “Log Reduction of Aspergillus niger” value in test [1] amounted to 2.9 Log. In test [2], the “Log Reduction of Staphylococcus aureus” value turned out to be 1.2 Log.
For `OC[C@H]1O[C@H](O[C@H]2O[C@H](CO)[C@@H](O)[C@H](O)[C@H]2O)[C@H](O)[C@@H](O)[C@@H]1O` [Trehalose], the “Log Reduction of Aspergillus niger” value in test [1] stood at 2.0 Log. In test [2], the “Log Reduction of Staphylococcus aureus” value is recorded as 1.3 Log.
In the case of `O=C(CO)[C@@H](O[C@H]1O[C@H](CO)[C@@H](O)[C@H](O)[C@H]1O)[C@H](O)[C@H](O)CO` [Turanose], the “Log Reduction of Aspergillus niger” value in test [1] is recorded as 2.1 Log. Besides, in test [2], the “Log Reduction of Staphylococcus aureus” value was determined as 1.4 Log.
